Tests used:
[1] = test system: Puccinia recondita f. sp. tritici; experiment: Test B: wheat leaf rust, spray on wheat seedlings, disease control rating; type: in vivo; settings: Rate 10 ppm, 100 = 100% disease control, 0 = no disease control relative to the controls; for pest or weed control at 10 ppm: Puccinia recondita, 192 h
Text: (§1) General protocol for preparing test suspensions for Tests A-F: the test compounds were first dissolved in acetone in an amount equal to 3% of the final volume and then suspended at the desired concentration (in ppm) in acetone and purified water (50/50 mix by volume) containing 250 ppm of the surfactant PEG400 (polyhydric alcohol esters). The resulting test suspensions were then used in Tests A-F.
The test solution was sprayed to the point of run-off on wheat seedlings. The following day the seedlings were inoculated with a spore suspension of Puccinia recondita f. sp. tritici (the causal agent of wheat leaf rust) and incubated in a saturated atmosphere at 20° C. for 24 h, and then moved to a growth chamber at 20° C. for 7 days, after which time disease ratings were made.
(§2) A rating of 100 indicates 100% disease control and a rating of 0 indicates no disease control (relative to the controls). A dash (-) indicates the compound was not tested.

[2] = test system: Phakopsora pachyrhizi; experiment: Test D: Asian soybean rust, spray on soybean seedlings, disease control rating; type: in vivo; settings: Rate 10 ppm, 100 = 100% disease control, 0 = no disease control relative to the controls; for pest or weed control at 10 ppm: Phakopsora pachyrhizi, 216 h
Text: as §1
The test solution was sprayed to the point of run-off on soybean seedlings. The following day the seedlings were inoculated with a spore suspension of Phakopsora pachyrhizi (the causal agent of Asian soybean rust) and incubated in a saturated atmosphere at 22° C. for 24 h and then moved to a growth chamber at 22° C. for 8 days, after which time visual disease ratings were made.
as §2

Structure (SMILES) | pest or weed control at 10 ppm [1] | pest or weed control at 10 ppm [2] | Test B disease control rating [1] | Test D disease control rating [2]
COC(=O)NCc1cc(-c2ccn(-c3c(F)cc(N)cc3F)n2)ccc1C [Compound 5, methyl N-[[5-[1-(4-amino-2,6-difluorophenyl)-1H-pyrazol-3-yl]-2-methylphenyl]methyl]carbamate] | 0% | 0% |  | 
COC(=O)NCc1cc(-c2ccn(-c3c(F)cc(Br)cc3F)n2)ccc1C [Compound 7, methyl N-[[5-[1-(4-bromo-2,6-difluorophenyl)-1H-pyrazol-3-yl]-2-methylphenyl]methyl]carbamate] | 100% | 100% |  | 
COC(=O)NCc1cc(-c2ccn(-c3c(F)cc(I)cc3F)n2)ccc1C [Compound 8, methyl N-[[5-[1-(2,6-difluoro-4-iodophenyl)-1H-pyrazol-3-yl]-2-methylphenyl]methyl]carbamate] | 100% | 100% |  | 
COC(=O)NCc1cc(-c2ccn(-c3c(F)cc(OCC4CC4)cc3F)n2)ccc1C [Compound 9] |  |  | 99% | 99%
COC(=O)NCc1cc(-c2ccn(-c3c(F)cc(O)cc3F)n2)ccc1C [Compound 10, methyl N-[[5-[1-(2,6-difluoro-4-hydroxyphenyl)-1H-pyrazol-3-yl]-2-methylphenyl]methyl]carbamate] | 0% | 0% |  | 
COC(=O)NCc1cc(-c2ccn(-c3c(F)cc(OCC(C)C)cc3F)n2)ccc1C [Compound 12] |  |  | 98% | 100%
COC(=O)NCc1cc(-c2ccn(-c3c(F)cc(OC(C)C)cc3F)n2)ccc1C [Compound 14, methyl N-[[5-[1-[2,6-difluoro-4-(1-methylethoxy)phenyl]-1H-pyrazol-3-yl]-2-methylphenyl]methyl]carbamate] | 100% | 100% |  | 
COC(=O)NCc1cc(-c2ccn(-c3c(F)cc(F)cc3F)n2)ccc1C [Compound 16] | 99% | 100% |  | 
COC(=O)NCc1cc(-c2ccn(-c3c(F)cc(OC(=O)OC)cc3F)n2)ccc1C [Compound 17] |  |  | 0% | 0%
COC(=O)NCc1cc(-c2ccn(-c3c(F)cc(OC(C)=O)cc3F)n2)ccc1C [Compound 18] |  |  | 41% | 65%
COC(=O)NCc1cc(-c2ccn(-c3c(F)cc(F)cc3SC)n2)ccc1C [Compound 19] | 0% | 81% |  | 
COC(=O)NCc1cc(-c2ccn(-c3c(SC)cc(F)cc3SC)n2)ccc1C [Compound 20] | 0% | 0% |  | 
COC(=O)NCc1cc(-c2ccn(-c3c(F)cc(OC4COC4)cc3F)n2)ccc1C [Compound 21] |  |  | 55% | 100%
COC(=O)NCc1cc(-c2ccn(-c3c(F)cc(OCC(F)(F)F)cc3F)n2)ccc1C [Compound 22] | 99% | 100% |  | 
COC(=O)NCc1cc(-c2ccn(-c3c(F)cc(OCC4CCCO4)cc3F)n2)ccc1C (stereo not drawn) [Compound 23] |  |  | 68% | 25%
COC(=O)NCc1cc(-c2ccn(-c3c(F)cc(NC(=O)OC)cc3F)n2)ccc1C [Compound 24] |  |  | 0% | 75%
COC(=O)NCc1cc(-c2ccn(-c3c(F)cc(NC(C)=O)cc3F)n2)ccc1C [Compound 25] |  |  | 8% | 81%
COC(=O)NCc1cc(-c2ccn(-c3c(F)cc(I)cc3SC)n2)ccc1C [Compound 26] | 73% | 87% |  | 

Structure (SMILES) | pest or weed control at 10 ppm [1] | pest or weed control at 10 ppm [2] | Test B disease control rating [1] | Test D disease control rating [2]
COC(=O)NCc1cc(-c2ccn(-c3c(F)cc(SC)cc3F)n2)ccc1C [Compound 27] | 99% | 100% |  | 
COC(=O)NCc1cc(-c2ccn(-c3c(F)cc(SC)cc3SC)n2)ccc1C [Compound 28] | 0% | 100% |  | 
COC(=O)NCc1cc(-c2ccn(-c3c(F)cc(OC(F)(F)C(F)F)cc3F)n2)ccc1C [Compound 29] |  |  | 100% | 100%
COC(=O)NCc1cc(-c2ccn(-c3c(F)cc(OCC4CCC4)cc3F)n2)ccc1C [Compound 31] |  |  | 91% | 0%
COC(=O)NCc1cc(-c2ccn(-c3c(F)cc(OCC4COC4)cc3F)n2)ccc1C [Compound 32] |  |  | 0% | 77%
COC(=O)NCc1cc(-c2ccn(-c3c(C)cc([N+](=O)[O-])cc3C)n2)ccc1C [Compound 35] | 0% | 0% |  | 
CNc1cc(F)c(-n2ccc(-c3ccc(C)c(CNC(=O)OC)c3)n2)c(F)c1 [Compound 36] | 68% | 100% |  | 
COC(=O)NCc1cc(-c2ccn(-c3c(F)cc([N+](=O)[O-])cc3Cl)n2)ccc1C [Compound 37] | 26% | 0% |  | 
COC(=O)NCc1cc(-c2ccn(-c3c(C)cc(N)cc3C)n2)ccc1C [Compound 38] | 0% | 0% |  | 
COC(=O)NCc1cc(-c2ccn(-c3c(F)cc(N)cc3Cl)n2)ccc1C [Compound 39] | 0% | 0% |  | 
COC(=O)NCc1cc(-c2ccn(-c3c(C)cc(OC)cc3C)n2)ccc1C [Compound 40] | 0% | 99% |  | 
COC(=O)NCc1cc(-c2ccn(-c3c(F)cc(C4CC4)cc3F)n2)ccc1C [Compound 41, methyl N-[[5-[1-(4-cyclopropyl-2,6-difluorophenyl)-1H-pyrazol-3-yl]-2-methylphenyl]methyl]carbamate] | 100% | 100% |  | 
COC(=O)NCc1cc(-c2ccn(-c3c(F)cc(SC(C)(C)C)cc3F)n2)ccc1C [Compound 42, methyl N-[[5-[1-[4-[(1,1-dimethylethyl)thio]-2,6-difluorophenyl]-1H-pyrazol-3-yl]-2-methylphenyl]methyl]carbamate] | 100% | 73% |  | 
COC(=O)NCc1cc(-c2ccn(-c3c(F)cc(SC(F)F)cc3F)n2)ccc1C [Compound 43, methyl N-[[5-[1-[4-[(difluoromethyl)thio]-2,6-difluorophenyl]-1H-pyrazol-3-yl]-2-methylphenyl]methyl]carbamate] | 100% | 100% |  | 
COC(=O)NCc1cc(-c2ccn(-c3c(Cl)cccc3Cl)n2)ccc1C [Compound 44] | 68% | 100% |  | 
COC(=O)NCc1cc(-c2ccn(-c3c(F)cccc3I)n2)ccc1C [Compound 45] | 0% | 100% |  | 
COC(=O)NCc1cc(-c2ccn(-c3c(F)cccc3Br)n2)ccc1C [Compound 46] | 68% | 100% |  | 
COC(=O)NCc1cc(-c2ccn(-c3c(F)cccc3Cl)n2)ccc1C [Compound 47] | 74% | 100% |  | 

Reference: patent publication US11634393B2, “Substituted tolyl fungicides” (FMC CORPORATION, priority 2018, dated 2023)
